Data reported in patent US5314819A, “Protein having nitrile hydratase activity obtained from rhizobium, gene encoding the same, and a method for producing amides from nitriles via a transformant containing the gene” (Mitsubishi Kasei Corporation, priority 1992, dated 1994).

Each molecule was assayed on AM24 protein (assay: Evaluation of the nitrile hydratase activity of AM24 protein (2): substrate specificity). Conditions: activity defined as 100 when acrylonitrile is the substrate; 0.2% (v/v) nitrile solution, 25° C., 5 minutes, pH 7.0; amide measured by HPLC.
Type: biochemical, Rhizobium sp. MCI2643
Method: One volume of the AM24 protein solution (its absorbance was 0.1 at 280 nm) and 4 volumes of 0.5M phosphate buffer, pH 7.0 were mixed together, to which were added 90 volumes of a 0.2% (v/v) solution of a nitrile compound for reaction at 25° C. for 5 minutes. After the reaction, 5 volumes of 1N HCl were added to terminate the reaction, and the resulting solution was then applied to an ODS column for HPLC, to measure the resulting amide compound. As the nitrile compound as the substrate, use was made of acrylonitrile, propionitrile, n-butyronitrile, isobutyronitrile, acetonitrile, chloroacetonitrile, malonamidenitrile, methacrylonitrile, 3-cyanopyridine, benzonitrile, and chrotononitrile.
The relative activity of each substrate is shown in Table 1, provided that the activity is defined as 100 when acrylonitrile is used as a reaction substrate.

| SMILES | Specific activity (%) (relative activity of each substrate) |
| --- | --- |
| CC#N [Acetonitrile] | 47% |
| N#Cc1ccccc1 [Benzonitrile] | 251% |
| C=C(C)C#N [Methacrylonitrile] | 143% |
| CCC#N [Propionitrile] | 59% |
| CC=CC#N [Chrotononitrile] | 34% |
| CCCC#N [n-Butyronitrile] | 152% |
| CC(C)C#N [Isobutyronitrile] | 28% |
| N#CCCl [Chloroacetonitrile] | 671% |
| C=CC#N [Acrylonitrile] | 100% |
| N#Cc1cccnc1 [3-Cyanopyridine] | 9% |
| N#CCC(N)=O [Malonamidenitrile] | 143% |

The molecules below were run on transformant containing the pEAM24X1 (assay: Conversion of a nitrile into an amide using the transformant containing pEAM24X1). Conditions: transformant cultured with CoCl2 and IPTG; aqueous 7% acrylonitrile solution, 30° C., 1 hour; HPLC.
Type: cell-based, Escherichia coli DH5 α
Method: The transformant containing the pEAM24X1 obtained in Example 7 was cultured overnight at 27° C. in 10 ml of an LB culture medium (containing 50 μg/ml Ampicillin). […] The strain were centrifuged and harvested, washed once in physiological saline, and suspended in 1.6 ml of a phosphate buffer (pH 7.0, 0.1M). 0.32 ml of the suspension was sampled, followed by mixing with 80 μl of an aqueous 7% acrylonitrile solution for reaction at 30° C. for 1 hour. After the termination of the reaction by addition of HCl as described before, the acrylamide and acrylonitrile concentrations in the reaction solution were determined by HPLC.
Thus cobalt is essential for nitrile hydratase activity.

| SMILES | conversion of acrylonitrile to acrylamide |
| --- | --- |
| C=CC#N [Acrylonitrile] | complete |

Same assay, conditions: transformant harboring pEAM24X1 cultured in a culture medium without cobalt

| SMILES | acrylamide in the reaction solution after termination of the reaction |
| --- | --- |
| C=CC#N [Acrylonitrile] | no acrylamide was detected |
